Results on 15 compounds are retold here after patent publication US5641798A, “Bicyclic compounds and their use as excitatory amino acid receptor antagonists” (Eli Lilly and Company, priority 1995, dated 1997).

Each structure is given as a SMILES string. Where “and” joins values, the source holds several entries; their conditions need not be identical. Equal entries are not always repeated. Where two headings read alike, the source gives them in different places.

One experiment deals with formalin model. As to conditions: mouse; cited from earlier work.
Experiment [1] concerns the target NMDA receptor. Description: [3H]MK-801 binding to well washed rat cortical membranes. As to conditions: [3H]MK-801 2.5 nM, glutamate 0.001 μM and glycine 10 μM, 27° C., two hours, mean of three experiments. The procedure:
The formula I compounds were also tested for their ability to inhibit NMDA receptor binding using [^3 H]MK-801 (New England Nuclear, Boston, Mass.). Rat brain cortices were extensively washed to remove endogenous glutamate and glycine. Cortices were homogenized in 20 volumes of ice-cold 0.32M sucrose and centrifuged at 1,000 xg for ten minutes. The supernatant was then centrifuged at 20,000 xg for 20 minutes. The resulting pellet was resuspended in 30 volumes of distilled water and centrifuged at 8,000 xg for 20 minutes. The resulting supernatant was centrifuged at 45,000 xg for 20 minutes and the pellet frozen in liquid nitrogen for at least 24 hours. On the day of the assay, the pellet was thawed at room temperature and resuspended in 30 volumes of ice-cold distilled water and centrifuged at 45,000 xg for 20 minutes. The final pellet was resuspended in 50 mM Tris (pH 7.4)at a concentration of 10 vol/gram wet weight of tissue.
The binding of [^3 H]MK-801 to well washed rat cortical membranes was conducted in the presence of added glutamate (0.001 μM) and glycine (10 μM). Antagonists were incubated with [^3 H]MK-801 (2.5 nM) and membrane aliquots (μg/ml protein)in a final volume of 1 ml at 27° C. for two hours. Nonspecific [^3 H]MK-801 binding was determined in the presence of 100 μM MK-801. Assays were terminated by filtering the samples over Whatman GF/B glass-fiber filters, presoaked in 0.05% polyethyleneimine, followed by a 10 ml ice cold saline wash.
These assays were performed in triplicate, and the mean values of three separate experiments were used to obtain the half maximal effective concentration. Final protein concentrations (0.5 mg/ml)for each assay were determined using the Lowry et al. (1951)method. Lowry, Rosebrough, Farr, and Randall, J. Biol. Chem., 193, 265-275 (1951). Analysis of the data was performed using a four-parameter logistic equation Graphpad Software San Diego, Calif.).

The target in experiment [2] is NMDA receptor. Nature of the experiment: [3H]CGS19755 radioligand binding to Triton-X-treated synaptosomal membranes of rat forebrain. Set-up: species or system rat (male Sprague-Dawley). To be noted: [3H]CGS19755 10 nM, ice-bath 30 min, mean, standard error, n=3. The method, then: The formula I compounds were tested for their ability to inhibit NMDA receptor binding to rat membranes in a radioligand binding assay using [^3 H]CGS19755. For these radioligand binding assays, male Sprague-Dawley rats were used. Displacement of the specific binding [^3 H]CGS19755 (10 nM)to Triton-X-treated synaptosomal membranes of rat forebrain was used to determine NMDA receptor affinity. Non-specific binding was determined using 10 μM L-glutamate. Samples were incubated in an ice-bath for 30 minutes, and bound ligand was separated from the free ligand by rapid filtration through WHATMAN GF/B glass fiber filters. Murphy et al, British J. Pharmacol., 95, 932-938 (1988). The concentration of the formula I compound that inhibited 50% binding (IC50, mean standard error, n=3)was calculated by linear regression of displacement data transformed to the Hill equation as described by Bennett. Bennett, Neurotransmitter Receptor Binding, 57-90 (1978).

Experiment [3] deals with NMDA receptor. Description: Antagonism of NMDA-induced depolarization of rat cortical wedges. It is filed as cell-based. To be noted: for NMDA receptor antagonist activity: cortical wedge assay, Table II. The procedure: The depolarization of rat cortical wedges was used to test the selectivity and potency of the formula I compounds as NMDA antagonist using a technique similar to that described by Harrison and Simmonds. Harrison and Simmonds, Bri. J. Pharmacol., 84, 381-391 (1984). Generally, 4-ml aliguots of NMDA (40 μM)were superfused (2 ml/min)on the gray matter at intervals of 15 to 20 minutes until stable responses where obtained. The tissue was then exposed for 15 minutes to various concentrations of the formula I compounds before retesting the agonist. The IC50 values were calculated from linear regression of log dose-response curves, each point the mean of at least three observations on separate slices from more than one animal.
The cortical wedge assay distinguishes between agonist and antagonist activity.

In the next experiment the test system is CNS ischemia. As to conditions: rabbits; cited from earlier work.
Experiment [4] has as its system focal cerebral ischemia. As to conditions: rats; cited from earlier work.
The subject of experiment [5] is warm water tail withdrawal. To be noted: rhesus monkeys; cited from earlier work.
Experiment [6] relates to focal cerebral ischemia. As to conditions: cats; cited from earlier work.

As for `NC(CCCP(=O)(O)O)C(=O)O` (racemic) [DL-AP5], the “analgesia in formalin model” value with formalin model is recorded as “analgesic”.
Regarding `O=C(O)[C@H]1NC[C@@H]2CCC(OCc3nn[nH]n3)[C@@H]21` (stereo partly drawn) [Compound 27, (1SR,2SR,5RS,8SR)-3-Aza-8-((1(2)H-tetrazol-5-yl)methoxy)bicyclo[3.3.0]octane-2-carboxylic Acid and (1SR,2SR,5RS,8RS)-3-Aza-8-((1(2)H-tetrazol-5-yl)methoxy)bicyclo[3.3.0]octane-2-carboxylic Acid], the IC50 at NMDA receptor [1] is more than 100 µM; at NMDA receptor [2], 5.66 ± 0.15 µM.
With `O=C(O)CCC1CC[C@H]2CN[C@H](C(=O)O)[C@@H]12` (stereo partly drawn) [Compound 20, (1SR,2SR,5RS,8SR)-3-Aza-8-(2-carboxyethyl)bicyclo[3.3.0]octane-2-carboxylic Acid and (1SR,2SR,5RS,8RS)-3-Aza-8-(2-carboxyethyl)bicyclo[3.3.0]octane-2-carboxylic Acid], the 50% inhibitory concentration (IC50) at NMDA receptor [1] is 47.3 ± 21 µM; at NMDA receptor [2], 1.44 ± 0.04 µM; in the experiment on NMDA receptor [3] (0.25 h), more than 100 µM.
With `O=C(O)[C@H]1C[C@@H](Cc2nn[nH]n2)CCN1` (relative stereo) [LY233053], the “protection in CNS ischemia model” value with CNS ischemia is given as “provided protection”.
As to `O=C(O)CC1CC[C@H]2CN[C@H](C(=O)O)[C@@H]12` (stereo partly drawn) [Compound 13, (1SR,2SR,5RS,8SR)-3-Aza-8-(carboxymethyl)bicyclo[3.3.0]octane-2-carboxylicAcid and (1SR,2SR,5RS,8RS)-3-Aza-8-(carboxymethyl)bicyclo[3.3.0]octane-2-carboxylicAcid], the IC50 is 39 ± 8.7 µM on NMDA receptor [1], 1.19 ± 0.54 µM at NMDA receptor [2] and 52 ± 8 µM in the experiment with NMDA receptor [3] (0.25 h).
Regarding `O=C(O)[C@@H]1C[C@H](CP(=O)(O)O)CCN1` [CGS 19755], in the experiment on focal cerebral ischemia [4], the “protection in focal cerebral ischemia model” value is given as “provided protection”. Moreover, in experiment [5], the “analgesia in warm water tail withdrawal procedure” value was “analgesic”.
Take `O=C(O)C1NCC2CCC(CSc3nn[nH]n3)C21` (stereo not drawn) [Compound 32, (1SR,2SR,5RS,8SR)-3-Aza-8-((1(2)H-tetrazole-5-thio)methyl)bicyclo[3.3.0]octane-2-carboxylic Acid]: the IC50 was 27.8 ± 12.2 µM at NMDA receptor [1], 1.31 ± 0.48 µM at NMDA receptor [2] and 59.7 ± 10 µM with NMDA receptor [3] (0.25 h).
For `O=C(O)[C@H]1NC[C@@H]2CC[C@H](Cc3nn[nH]n3)[C@@H]21` (relative stereo) [Compound 33, (1SR,2SR,5RS,8RS)-3-Aza-8-((1(2)H-tetrazol-5-yl)methyl)bicyclo[3.3.0]octane-2-carboxylic Acid], the IC50 was 36.6 ± 7 µM at NMDA receptor [1]; 0.67 µM and < 1 µM on NMDA receptor [2]; 28.6 ± 5.6 µM with NMDA receptor [3] (0.25 h). Also, the “NMDA receptor antagonist activity” value with NMDA receptor [3] was “NMDA receptor antagonists”.
In the case of `O=C(O)[C@H]1CN(C/C=C/P(=O)(O)O)CCN1` [D-(-)CPP-ene], in the experiment on focal cerebral ischemia [6], the “protection in focal cerebral ischemia model” value is listed as “provided protection”.
Take `O=C(O)[C@H]1NC[C@@H]2CCC(CCSc3nn[nH]n3)[C@@H]21` (stereo partly drawn) [Compound 22, (1SR,2SR,5RS,8SR)-3-Aza-8-(2-(1(2)H-tetrazole-5-thio)ethyl)bicyclo[3.3.0]octane-2-carboxylic Acid and (1SR,2SR,5RS,8RS)-3-Aza-8-(2-(1(2)H-tetrazole-5-thio)ethyl)bicyclo[3.3.0]octane-2-carboxylic Acid]: the IC50 on NMDA receptor [1] is more than 100 µM; on NMDA receptor [2], 26.1 ± 6.13 µM.
For the compound `O=C(O)[C@H]1NC[C@@H]2CCC(CCOCc3nn[nH]n3)[C@@H]21` (stereo partly drawn) [Compound 23, (1SR,2SR, 5RS,8SR)-3-Aza-8-(2-(1(2)H-tetrazol-5-ylmethoxy)ethyl)bicyclo[3.3.0]octane-2-carboxylic Acid and (1SR,2SR,5RS,8RS)-3-Aza-8-(2-(1(2)H-tetrazol-5-ylmethoxy)ethyl)bicyclo[3.3.0]octane-2-carboxylic Acid], the IC50 at NMDA receptor [1] is more than 100 µM; at NMDA receptor [2] it was more than 100 µM; in the experiment on NMDA receptor [3] (NMDA 40 μM, 15 min exposure to compound, rat cortical wedges, read-out: Antagonism of Cortical Wedge Depolarization IC50), more than 100 µM.
For `O=C(O)[C@H]1NC[C@@H]2CCC(Cc3nn[nH]n3)[C@@H]21` (stereo partly drawn) [Compound 12, (1SR,2SR,5RS,8SR)-3-Aza-8-((1(2)H-tetrazol-5-yl)methyl)bicyclo[3.3.0]octane-2-carboxylic Acid and (1SR,2SR,5RS,8RS)-3-Aza-8-((1(2)H-tetrazol-5-yl)methyl)bicyclo[3.3.0]octane-2-carboxylic Acid], the IC50 on NMDA receptor [1] is 49.7 ± 14.2 µM; at NMDA receptor [2] it was 0.73 µM and < 1 µM; in the experiment with NMDA receptor [3] (0.25 h), 9.5 ± 5 µM. Besides, the “NMDA receptor antagonist activity” value in the experiment with NMDA receptor [3] was “NMDA receptor antagonists”.
Take `O=C(O)[C@H]1NC[C@@H]2CC[C@@H](Cc3nn[nH]n3)[C@@H]21` (relative stereo) [Compound 38, (1SR,2SR,5RS,8SR)-3-Aza-8-((1(2)H-tetrazol-5-yl)methyl)bicyclo[3.3.0]octane-2-carboxylic Acid]: the 50% inhibitory concentration (IC50) at NMDA receptor [1] was 47.3 ± 7.62 µM; on NMDA receptor [2], 3.13 ± 0.58 µM; in the experiment with NMDA receptor [3] (0.25 h), more than 100 µM.
Regarding `O=C(O)[C@H]1NC[C@@H]2CCC(CCc3nn[nH]n3)[C@@H]21` (stereo partly drawn) [Compound 21, (1SR,2SR,5RS,8SR)-3-Aza-8-(2-(1 (2)H-tetrazol-5-yl)ethyl)bicyclo[3.3.0]octane-2-carboxylic Acid and (1SR,2SR,5RS,8RS)-3-Aza-8-(2-(1(2)H-tetrazol-5-yl)ethyl)bicyclo[3.3.0]octane-2-carboxylic Acid], the 50% inhibitory concentration (IC50) on NMDA receptor [1] was 37.7 ± 9.3 µM; at NMDA receptor [2], 4.5 ± 0.98 µM; in the experiment on NMDA receptor [3] (0.25 h), more than 100 µM.
On to `C[C@]12N[C@H](Cc3ccccc31)c1ccccc12` [dizocilpine], for which the “protection in focal cerebral ischemia model” value in the experiment on focal cerebral ischemia [4] and with focal cerebral ischemia [6] was “provided protection” each time.

Usually IC50 stands for the midpoint of a concentration-inhibition curve.
